Results reported in patent US20170348269A1, “TREATMENT OF UREA CYCLE DISORDERS IN NEONATES AND INFANTS” (Horizon Therapeutics, LLC, priority 2016, published 2017).
Values joined by “and” are separate entries in the source; they are usually repeats but may differ in a detail not shown here. Equal values may be shown once.

Legend:
[1] = molecular target: T1, bile salt-stimulated lipase (Homo sapiens, UniProt P19835); conditions: cited from earlier work
T1 sequence (P19835 21-753): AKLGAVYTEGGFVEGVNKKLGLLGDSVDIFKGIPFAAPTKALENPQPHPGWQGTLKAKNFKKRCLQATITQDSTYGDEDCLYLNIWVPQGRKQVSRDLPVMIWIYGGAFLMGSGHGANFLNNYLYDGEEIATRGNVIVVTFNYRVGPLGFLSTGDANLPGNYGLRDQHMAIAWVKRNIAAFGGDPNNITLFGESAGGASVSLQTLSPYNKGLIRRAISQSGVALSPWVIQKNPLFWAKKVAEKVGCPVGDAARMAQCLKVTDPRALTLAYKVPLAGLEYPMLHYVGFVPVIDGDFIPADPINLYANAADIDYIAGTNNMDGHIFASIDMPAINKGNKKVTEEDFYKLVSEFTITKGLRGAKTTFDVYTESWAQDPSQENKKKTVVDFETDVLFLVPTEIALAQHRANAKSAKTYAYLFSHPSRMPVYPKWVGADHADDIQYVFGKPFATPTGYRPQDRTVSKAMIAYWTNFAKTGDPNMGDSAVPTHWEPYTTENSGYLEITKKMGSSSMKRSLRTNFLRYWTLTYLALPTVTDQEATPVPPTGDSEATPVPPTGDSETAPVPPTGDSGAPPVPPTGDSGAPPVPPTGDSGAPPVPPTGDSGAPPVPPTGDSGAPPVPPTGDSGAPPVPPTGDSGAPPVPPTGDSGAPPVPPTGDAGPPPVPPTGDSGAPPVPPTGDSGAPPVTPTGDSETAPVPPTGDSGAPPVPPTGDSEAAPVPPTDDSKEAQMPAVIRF

[2] = system: venous ammonia in pediatric patients with UCDs; assay: Study 6, uncontrolled open-label study in children under 2 years of age; assay type: in vivo, human
Procedure: Uncontrolled, open-label studies were conducted to assess monthly ammonia control and hyperammonemic crisis of RAVICTI® in pediatric patients with UCDs 2 months to less than 2 years of age (Study 4/4E, Study 5, and Study 6). Patients in Study 5 previously participated in Study 4/4E. A total of 17 pediatric patients with UCDs aged 2 months to less than 2 years participated in the studies.
A total of 10 pediatric patients with UCDs aged 2 months to less than 2 years participated in Study 6, of which 7 patients converted from sodium phenylbutyrate to RAVICTI®. The dosage of RAVICTI® was calculated to deliver the same amount of PBA as the sodium phenylbutyrate dosage the patients were taking when they entered the trial. Two patients were treatment naïve and received RAVICTI® dosage of 7.5 mL/m^2/day and 9.4 mL/m^2/day, respectively. One additional patient was gradually discontinued from intravenous sodium benzoate and sodium phenylacetate while RAVICTI® was initiated. The dosage of RAVICTI® after transition was 8.5 mL/m^2/day.
In Study 6, there were 9, 7 and 3 pediatric patients who completed 1, 3 and 6 months, respectively (mean and median exposure of 4 and 5 months, respectively).
Patients received a mean RAVICTI® dose of 8 mL/m^2/day (8.8 g/m^2/day), with doses ranging from 4.8 to 11.5 mL/m^2/day (5.3 to 12.6 g/m^2/day). Patients were dosed three times a day (n=6), four times a day (n=2), or five or more times a day (n=2).
The primary efficacy endpoint was successful transition to RAVICTI® within a period of 4 days followed by 3 days of observation for a total of 7 days, where successful transition was defined as no signs and symptoms of hyperammonemia and a venous ammonia value less than 100 micromol/L. Venous ammonia levels were monitored for up to 4 days during transition and on day 7. Nine patients successfully transitioned as defined by the primary endpoint. One additional patient developed hyperammonemia on day 3 of dosing and experienced surgical complications (bowel perforation and peritonitis) following jejunal tube placement on day 4. This patient developed hyperammonemic crisis on day 6, and subsequently died of sepsis from peritonitis unrelated to drug. Although two patients had day 7 ammonia values of 150 micromol/L and 111 micromol/L respectively, neither had associated signs and symptoms of hyperammonemia.
During the extension phase, venous ammonia levels were monitored monthly. Ammonia values across different laboratories were normalized (transformed) to a common normal pediatric range of 28 to 57 micromol/L for comparability. The mean normalized venous ammonia values in pediatric patients at month 1, 2, 3, 4, 5 and 6 were 67, 53, 78, 99, 56 and 61 micromol/L during treatment with RAVICTI®, respectively. Three patients reported a total of 7 hyperammonemic crises defined as having signs and symptoms consistent with hyperammonemia (such as frequent vomiting, nausea, headache, lethargy, irritability, combativeness, and/or somnolence) associated with high venous ammonia levels and requiring medical intervention. Hyperammonemic crises were precipitated by vomiting, upper respiratory tract infection, gastroenteritis, decreased caloric intake or had no identified precipitating event (3 events). There were three additional patients who had one venous ammonia level that exceeded 100 micromol/L which was not associated with a hyperammonemic crisis.

[3] = Study 6 extension phase, normalized to 28 to 57 micromol/L

O=C(CCCc1ccccc1)OCC(COC(=O)CCCc1ccccc1)OC(=O)CCCc1ccccc1 [HPN-100, benzenebutanoic acid, 1′,1″-(1,2,3-propanetriyl) ester]
hydrolysis in vitro by bile salt-stimulated lipase [1]: hydrolyze
additional patients with one venous ammonia level exceeding 100 micromol/L not associated with a hyperammonemic crisis ([2]; Study 6): three
patients successfully transitioned (no signs and symptoms of hyperammonemia and venous ammonia less than 100 micromol/L) ([2]; Study 6, 10 patients 2 months to <2 years, 7 days): Nine
day 7 ammonia values of two individual patients ([2]; Study 6, no associated signs and symptoms of hyperammonemia, listed as RAVICTI®): 150 µmol/L and 111 µmol/L
total hyperammonemic crises ([2]; Study 6, reported by three patients): 7
mean normalized venous ammonia, month 1 [2, 3]: 67 µmol/L
mean normalized venous ammonia, month 2 [2, 3]: 53 µmol/L
mean normalized venous ammonia, month 3 [2, 3]: 78 µmol/L
mean normalized venous ammonia, month 4 [2, 3]: 99 µmol/L
mean normalized venous ammonia, month 5 [2, 3]: 56 µmol/L
mean normalized venous ammonia, month 6 [2, 3]: 61 µmol/L
